# Like-named read-outs stand apart in the source and are kept apart here.
# Target: T1, memapsin 2 (Homo sapiens, UniProt P56817)
# T1 construct: pET-11 vector-derived residues 1-15 of promemapsin 2-T1 (N, cleaved yes); made in house; host or cells: E. coli
# Experiment: Inhibition of memapsin 2 proteolytic activity, fluorogenic substrate FS-2
# Type: biochemical
# Conditions: for Vi/Vo: ratio of initial cleavage velocities of FS-2 with/without compound, enzyme and inhibitor concentrations equal (e.g., about 80 nM, 100 nM)
# Procedure: Ki is the inhibition equilibrium constant which indicates the ability of compounds to inhibit the β-secretase activity of memapsin 2 and memapsin 1. […] The K1 value is independent of the substrate, and converted from Ki apparent.
# The Vi/Vo values depicted in Table 1 were determined at conditions under which the enzyme and inhibitor concentrations were equal (e.g., about 80 nM, 100 nM).
# The relationship of Ki (independent of substrate concentration) to Kiapp is a function of substrate concentration in the assay and the Km for cleavage of the substrate by either memapsin 1 or memapsin 2 by the relationship:
# The spontaneously activated memapsin 2 was employed in assays to assess the inhibition of memapsin 2 relative to memapsin 1 by compounds of the invention and in some crystallization studies.
# An aliquot of the inhibitor of known concentration in DMSO was diluted into 1.8 ml 0.1 M NaOAc, pH 4.0. DMSO and added to a final concentration of 10% (v/v), and memapsin 2 (final concentration of 80 nM), followed by a 20 minute equilibration at 37° C. Compounds were evaluated for the ability to inhibit memapsin 1 and memapsin 2 at concentrations between about 10 nM and about 10 μm of inhibitor.
# [1] = memapsin 2, apparent Ki in presence of substrate FS-2, read-out: Ki app
# [2] = memapsin 2, independent of substrate, converted from Ki apparent, read-out: Ki
# [3] = Ki, [I] < 100, memapsin 2, [I] < 100 (nM)
# T1 sequence (P56817 41-454 limits assumed): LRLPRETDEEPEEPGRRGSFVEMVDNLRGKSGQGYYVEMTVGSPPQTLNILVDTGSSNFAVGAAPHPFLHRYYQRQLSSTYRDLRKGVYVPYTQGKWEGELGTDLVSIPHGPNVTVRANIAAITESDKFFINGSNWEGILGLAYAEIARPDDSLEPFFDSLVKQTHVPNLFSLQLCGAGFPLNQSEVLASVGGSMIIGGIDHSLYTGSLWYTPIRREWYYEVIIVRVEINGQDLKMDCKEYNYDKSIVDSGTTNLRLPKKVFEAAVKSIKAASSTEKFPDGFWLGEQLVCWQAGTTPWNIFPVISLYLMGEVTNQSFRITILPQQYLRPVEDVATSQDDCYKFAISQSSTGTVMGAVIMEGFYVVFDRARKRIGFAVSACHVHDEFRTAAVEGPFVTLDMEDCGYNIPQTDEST
compound,measurement,setting,value
CSCC[C@H](NC(=O)[C@@H](NC(=O)OC(C)(C)C)C(C)C)C(=O)N[C@@H](CC(C)C)[C@@H](O)C[C@@H](C)C(=O)N[C@@H](C(C)C)C1CC(Cc2ccccc2)CC(=O)O1 (some centres unmarked) [MMI-141],Ki,[1],30000 nM
same,Ki,[2],18800 nM
CSCC[C@H](NC(=O)[C@@H](NC(=O)OC(C)(C)C)C(C)C)C(=O)N[C@@H](CC(C)C)[C@@H](O)C[C@@H](C)C(=O)N[C@H]1c2ccccc2C[C@H]1O [MMI-046],Ki,[2],93700 nM
CSCC[C@H](NC(=O)[C@@H](NC(=O)OC(C)(C)C)C(C)C)C(=O)N[C@@H](CC(C)C)[C@@H](O)C[C@@H](C)C(=O)N[C@@H](C(C)C)C1CC(Cc2ccccc2)CCO1 (some centres unmarked) [MMI-147],Vi/Vo,,1.1
CSCC[C@H](NC(=O)OCc1ccco1)C(=O)N[C@@H](CC(C)C)[C@@H](O)C[C@@H](C)C(=O)N[C@H](C(=O)NCc1ccccc1)C(C)C [MMI-119],Vi/Vo,,0.38
CSCC[C@H](NS(=O)(=O)c1ccc(CO)cc1)C(=O)N[C@@H](Cc1ccccc1)[C@@H](O)C[C@@H](C)C(=O)N[C@H](C(=O)NCc1ccccc1)C(C)C [MMI-048],Ki,[1],54800 nM
same,Ki,[2],34200 nM
C=CC[C@H](C[C@H](O)[C@H](CC(C)C)NC(=O)[C@H](CC(N)=O)NC(=O)OC(C)(C)C)C(=O)N[C@H](C(=O)NCc1ccccc1)C(C)C [MMI-010],Ki,[1],29400 nM
same,Ki,[2],18700 nM
Cc1cc(C)n(CCOC(=O)N[C@@H](CCN2CCOCC2)C(=O)N[C@@H](CC(C)C)[C@@H](O)C[C@@H](C)C(=O)N[C@@H](CC(C)C)C(=O)NC(C)C)n1 [MMI-223],Ki,[1],8420 nM
same,Ki,[2],5280 nM
CSCC[C@H](NC(=O)[C@@H](NC(=O)OC(C)(C)C)C(C)C)C(=O)N[C@@H](CC(C)C)[C@@H](O)C[C@@H](C)C(=O)N[C@@H](C(C)C)C1CCCO1 (some centres unmarked) [MMI-154],Vi/Vo,,0.1
CSCC[C@H](NC(=O)[C@@H](NC(=O)OC(C)(C)C)C(C)C)C(=O)N[C@@H](CC(C)C)[C@@H](O)C[C@@H](C)C(=O)N[C@H](CO)C(C)C [MMI-042],Ki,[1],36500 nM
same,Ki,[2],22800 nM
CSCC[C@H](NC(=O)[C@@H](NC(=O)OC(C)(C)C)C(C)C)C(=O)N[C@@H](CC(C)C)[C@@H](O)C[C@@H](C)C(=O)N[C@@H](CC(C)C)C(=O)N1CCN(C)CC1 [MMI-184],Ki,[3],64 nM
same,Ki,[1],194 nM
same,Ki,[2],121 nM
same,Vi/Vo,,0.6
COc1cccc(C(=O)N[C@@H](CCSC)C(=O)N[C@@H](CC(C)C)[C@@H](O)C[C@@H](C)C(=O)N[C@@H](CC(C)C)C(=O)NC(C)C)c1OC [MMI-206],Ki,[3],292 nM
same,Ki,[1],1210 nM
same,Ki,[2],758 nM
CSCC[C@H](NC(=O)OCc1cccnc1)C(=O)N[C@@H](CC(C)C)[C@@H](O)C[C@@H](C)C(=O)N[C@H](C(=O)NCc1ccccc1)C(C)C [MMI-039],Ki,[1],1400 nM
same,Ki,[2],873 nM
CSC[C@H](NC(=O)OCc1ccccn1)C(=O)N[C@@H](CC(C)C)[C@@H](O)C[C@@H](C)C(=O)N[C@H](C(=O)NCc1ccccc1)C(C)C [MMI-125],Vi/Vo,,0.76
CC(C)C[C@H](NC(=O)[C@H](CCS(C)(=O)=O)NC(=O)[C@@H](NC(=O)OC(C)(C)C)C(C)C)[C@@H](O)C[C@@H](C)C(=O)N[C@H](C(=O)NCc1ccccc1)C1CCCO1 (some centres unmarked) [MMI-035],Ki,[1],426 nM
same,Ki,[2],266 nM
CC(C)C[C@H](NC(=O)[C@H](CCS(C)(=O)=O)NC(=O)[C@@H](NC(=O)OC(C)(C)C)C(C)C)[C@@H](O)C[C@@H](C)C(=O)N[C@H]1c2ccccc2C[C@H]1O [MMI-047],Ki,[2],69100 nM
CSCC[C@H](NC(=O)OCn1nc(C)cc1C)C(=O)N[C@@H](CC(C)C)[C@@H](O)C[C@@H](C)C(=O)N[C@H](C(=O)N1CCN(C)CC1)C(C)C [MMI-217],Ki,[1],1070 nM
same,Ki,[2],670 nM
CSCCC(NC(=O)[C@@H](NC(=O)OC(C)(C)C)C(C)C)C(=O)N[C@@H](CC(C)C)[C@@H](O)C[C@@H](C)C(=O)N[C@H](C(=O)NCc1ccccc1)[C@H](C)O (some centres unmarked) [MMI-081],Vi/Vo,,0.87
C=CC[C@H](C[C@H](O)[C@H](CC(C)C)NC(=O)[C@H](CC(N)=O)NC(=O)[C@@H](NC(=O)OC(C)(C)C)C(C)C)C(=O)N[C@H](C(=O)NCc1ccccc1)C(C)C [MMI-021],Ki,[1],112 nM
same,Ki,[2],70.1 nM
CC(C)C[C@H](NC(=O)[C@H](CS(C)(=O)=O)NC(=O)OCc1cccnc1)[C@@H](O)C[C@@H](C)C(=O)N[C@H](C(=O)NCc1ccccc1)C(C)C [MMI-142],Vi/Vo,,0.92
CSCC[C@H](NC(=O)OCn1nc(C)cc1C)C(=O)N[C@@H](CC(C)C)[C@@H](O)C[C@@H](C)C(=O)N[C@@H](CC(C)C)C(=O)NC(C)C [MMI-224],Ki,[1],70 nM
same,Ki,[2],43.8 nM
